Reference: patent publication US20250195510A1, “NOVEL METHODS” (priority 2022, published 2025)

Experiments:
[1] = test system: hippocampal gene expression (NanoString gene sets); test: NanoString nCounter hippocampal gene expression after coinjection of LPS and lumateperone; format: in vivo, mouse
Description: NanoString. The mouse neuropathology panel includes 770 genes associated with themes of neurotransmission, neuron-glia interaction, neuroplasticity, cell structure integrity, neuroinflammation and metabolism. A total of 13 housekeeping genes are used for expression normalization (Aars: NM_146217.4, Asb10: NM_080444.4, Ccdc127: NM_024201.3, Cnot10: NM_153585.5, Csnk2a2: NM_009974.3, Fam104a: NM_138598.5, Gusb: NM_010368.1, Lars: NM_134137.2, Mtol: NM_026658.2, Supt7l: NM_028150.1, Tada2b: NM_001170454.1:3224, Tbp: NM_013684.3:70, and Xpnpepl: NM_133216.3:1826, see FIG. 1-1). Hippocampal RNA is extracted using the Qiagen microkit (Qiagen) and is evaluated by the Agilent 2100 Bioanalyzer (Agilent Technologies, Santa Clara, CA) to assess RNA concentration, quality, and integrity. Sample preparation, hybridization, and detection (100 ng per sample, n=5-6 per group) are carried out according to NanoString manufacturer's instructions (NanoString Technologies, Seattle, WA). The normalized data are transformed to log 2 score to express the fold change. NanoString results (raw and normalized counts) are derived from RCC files using the nSolver software (version 2.6; NanoString Technologies). A complementary gene software analysis tool, ROSALIND® Advanced Analysis Software (NanoString Technologies), is also used, which provides comprehensive free cloud-based data analysis for nCounter data by directly analyzing raw RCC files generated from NanoString. Data are imported into ROSALIND® Advanced Analysis Software for normalization, calculation of fold-changes, P values, identification of enriched pathways, and heatmaps.
The NanoString platform has been effectively used to quantitatively measure in vivo gene expression of target genes in several neuropathological mouse models.
It is calculated similarly to a unidirected global significance score, but it takes into account the sign of the t-statistic. Scores were calculated by nSolver software, using the control group as a reference.
Next, using ROSALIND® Advanced Analysis Software and a filter set to P<.

Sprague-Dawley rats = test: Female urine sniffing test (FUST), LPS-induced anhedonia; format: in vivo, rat; settings: LPS 1 mg/kg SC
Description: All other reagents are obtained in the highest purity available from Sigma-Aldrich (St. Louis, MO) unless otherwise noted. […] Sigma-Aldrich, ref #0127: B8) diluted in 0.9% injectable saline while control group animals receive injections of all vehicles matching the experimental conditions. […] Behavioral Evaluation. […] Reward Sniffing Test (also known also as female urine sniffing test (FUST)): In this anhedonia-based assay, rats are brought to a well-ventilated testing room under dim lighting. A sterile cotton-tipped applicator is attached to one wall in the home cage for 1 hour to habituate rats to this new object. For the 2 phases of the 5 minute test, rats are first exposed to a new cotton tip dipped in sterile water as a control that is removed at the end of the 5 minutes; 45 minutes later, another cotton tip previously dipped into fresh rat urine collected from females of the same strain is attached to the cage wall. Male behavior is video recorded and latency to first sniff of the cotton tip and total time spent sniffing the cotton-tipped applicator are determined. In a pilot study, a dose response curve is conducted with varying doses of LPS to select an optimal dose for inducing an anhedonic response in rats. […] SC). […] Control rats are administered saline instead of LPS and vehicle instead of lumateperone. Anhedonia is assessed using FUST (female urine sniffing test) and measuring latency to sniff the reward combined with time spent sniffing the reward. Latency sniffing water is used as a control. The results are shown in the table below (time in seconds) with outliers removed using the MAD Method: […]

[2] = Inflammation gene, LPS 500 μg/kg + Luma 3 mg/kg, 2 h
[3] = Microglia gene, LPS 500 μg/kg + Luma 3 mg/kg, 2 h
[4] = Neuroprotect gene, LPS 500 μg/kg + Luma 3 mg/kg, 2 h

CN1CCN2c3c(cccc31)[C@@H]1CN(CCCC(=O)c3ccc(F)cc3)CC[C@@H]12 [Lumateperone, 4-((6bR,10aS)-3-methyl-2,3,6b,9,10,10a-hexahydro-1H-pyrido[3′,4′: 4,5]pyrrolo[1,2,3-de]quinoxaline-8 (7H)-yl)-1-(4-fluorophenyl)-1-butanone]
Casp4 hippocampal expression, Log2, LPS + Luma vs LPS [1, 2]: −2.24
Ccr2 hippocampal expression, Log2, LPS + Luma vs LPS [1, 2]: −1.71
Ikbkb hippocampal expression, Log2, LPS + Luma vs LPS [1, 2]: −0.132
Il1b hippocampal expression, Log2, LPS + Luma vs LPS [1, 2]: −1.42
Il1r1 hippocampal expression, Log2, LPS + Luma vs LPS [1, 2]: −0.309
Lrg1 hippocampal expression, Log2, LPS + Luma vs LPS [1, 2]: −1.67
Ly6a hippocampal expression, Log2, LPS + Luma vs LPS [1, 2]: −0.925
Myd88 hippocampal expression, Log2, LPS + Luma vs LPS [1, 2]: −0.433
Nfkb2 hippocampal expression, Log2, LPS + Luma vs LPS [1, 2]: −0.972
Osmr hippocampal expression, Log2, LPS + Luma vs LPS [1, 2]: −1.21
Socs3 hippocampal expression, Log2, LPS + Luma vs LPS [1, 2]: −1.57
Tnfrsf1a hippocampal expression, Log2, LPS + Luma vs LPS [1, 2]: −0.434
Tnfrsf1b hippocampal expression, Log2, LPS + Luma vs LPS [1, 2]: −0.31
Directed global significance score vs control group, gene set Oligodendrocyte function ([1]; LPS 500 μg/kg + Luma 3 mg/kg coinjected, 2 h, LPS alone 0.181): 0.48
Directed global significance score vs control group, gene set Insulin signaling ([1]; LPS 500 μg/kg + Luma 3 mg/kg coinjected, 2 h, LPS alone 0.28): 0.809
Directed global significance score vs control group, gene set Epigenetic regulation ([1]; LPS 500 μg/kg + Luma 3 mg/kg coinjected, 2 h, LPS alone 0.312): 0.892
Directed global significance score vs control group, gene set Microglia function ([1]; LPS 500 μg/kg + Luma 3 mg/kg coinjected, 2 h, LPS alone 0.377): 0.915
Directed global significance score vs control group, gene set Cellular stress ([1]; LPS 500 μg/kg + Luma 3 mg/kg coinjected, 2 h, LPS alone 0.499): 0.813
Directed global significance score vs control group, gene set Carbohydrate metabolism ([1]; LPS 500 μg/kg + Luma 3 mg/kg coinjected, 2 h, LPS alone 0.507): 0.668
Directed global significance score vs control group, gene set Adaptive immune response ([1]; LPS 500 μg/kg + Luma 3 mg/kg coinjected, 2 h, LPS alone 0.571): 0.938
Directed global significance score vs control group, gene set DNA damage ([1]; LPS 500 μg/kg + Luma 3 mg/kg coinjected, 2 h, LPS alone 0.578): 0.042
Directed global significance score vs control group, gene set Autophagy ([1]; LPS 500 μg/kg + Luma 3 mg/kg coinjected, 2 h, LPS alone 0.588): 0.548
Directed global significance score vs control group, gene set Growth factor signaling ([1]; LPS 500 μg/kg + Luma 3 mg/kg coinjected, 2 h, LPS alone 0.76): 0.698
Directed global significance score vs control group, gene set Notch ([1]; LPS 500 μg/kg + Luma 3 mg/kg coinjected, 2 h, LPS alone 0.876): 1.05
Directed global significance score vs control group, gene set Apoptosis ([1]; LPS 500 μg/kg + Luma 3 mg/kg coinjected, 2 h, LPS alone 0.915): −0.453
Directed global significance score vs control group, gene set Innate immune response ([1]; LPS 500 μg/kg + Luma 3 mg/kg coinjected, 2 h, LPS alone 0.939): −0.655
Directed global significance score vs control group, gene set Cytokine signaling ([1]; LPS 500 μg/kg + Luma 3 mg/kg coinjected, 2 h, LPS alone 0.993): −0.599
Directed global significance score vs control group, gene set Inflammatory signaling ([1]; LPS 500 μg/kg + Luma 3 mg/kg coinjected, 2 h, LPS alone 1.086): −0.93
Directed global significance score vs control group, gene set NF-kB ([1]; LPS 500 μg/kg + Luma 3 mg/kg coinjected, 2 h, LPS alone 1.215): −0.689
Directed global significance score vs control group, gene set Astrocyte function ([1]; LPS 500 μg/kg + Luma 3 mg/kg coinjected, 2 h, LPS alone 1.391): −0.308
Directed global significance score vs control group, gene set Angiogenesis ([1]; LPS 500 μg/kg + Luma 3 mg/kg coinjected, 2 h, LPS alone −0.144): 0.891
Directed global significance score vs control group, gene set Cell cycle ([1]; LPS 500 μg/kg + Luma 3 mg/kg coinjected, 2 h, LPS alone −0.148): 0.385
Directed global significance score vs control group, gene set Lipid metabolism ([1]; LPS 500 μg/kg + Luma 3 mg/kg coinjected, 2 h, LPS alone −0.192): 0.89
Directed global significance score vs control group, gene set Neurons and neurotransmission ([1]; LPS 500 μg/kg + Luma 3 mg/kg coinjected, 2 h, LPS alone −0.422): 0.979
Directed global significance score vs control group, gene set Wnt ([1]; LPS 500 μg/kg + Luma 3 mg/kg coinjected, 2 h, LPS alone −0.476): 1.186
Directed global significance score vs control group, gene set Matrix remodeling ([1]; LPS 500 μg/kg + Luma 3 mg/kg coinjected, 2 h, LPS alone −0.583): 0.447
genes that promote inflammation (e.g., Osmr, Tnfrsf1a, Tnfrsf11b, Prl, Il1r1), ROSALIND analysis ([1]; LPS+Luma versus LPS alone, filter P<.04999): significantly downregulates
Directed global significance score vs control group, gene set Adaptive immune response ([1]; Luma alone): 0.344
Directed global significance score vs control group, gene set Angiogenesis ([1]; Luma alone): 0.616
Directed global significance score vs control group, gene set Apoptosis ([1]; Luma alone): −0.442
Directed global significance score vs control group, gene set Astrocyte function ([1]; Luma alone): −0.837
Directed global significance score vs control group, gene set Autophagy ([1]; Luma alone): −0.731
Directed global significance score vs control group, gene set Carbohydrate metabolism ([1]; Luma alone): −0.837
Directed global significance score vs control group, gene set Cell cycle ([1]; Luma alone): −0.75
Directed global significance score vs control group, gene set Cellular stress ([1]; Luma alone): −0.432
Directed global significance score vs control group, gene set Cytokine signaling ([1]; Luma alone): −0.543
Directed global significance score vs control group, gene set DNA damage ([1]; Luma alone): −0.614
Directed global significance score vs control group, gene set Epigenetic regulation ([1]; Luma alone): 0.729
Directed global significance score vs control group, gene set Growth factor signaling ([1]; Luma alone): 0.226
Directed global significance score vs control group, gene set Inflammatory signaling ([1]; Luma alone): −1.032
Directed global significance score vs control group, gene set Innate immune response ([1]; Luma alone): −0.611
Directed global significance score vs control group, gene set Insulin signaling ([1]; Luma alone): 0.858
Directed global significance score vs control group, gene set Lipid metabolism ([1]; Luma alone): −0.818
Directed global significance score vs control group, gene set Matrix remodeling ([1]; Luma alone): −0.4
Directed global significance score vs control group, gene set Microglia function ([1]; Luma alone): 0.466
Directed global significance score vs control group, gene set NF-kB ([1]; Luma alone): −0.499
Directed global significance score vs control group, gene set Neurons and neurotransmission ([1]; Luma alone): 0.435
Directed global significance score vs control group, gene set Notch ([1]; Luma alone): 0.834
Directed global significance score vs control group, gene set Oligodendrocyte function ([1]; Luma alone): −1.176
Directed global significance score vs control group, gene set Wnt ([1]; Luma alone): 0.9
Cd36 hippocampal expression, Log2, LPS + Luma vs LPS [1, 3]: 0.332
Cx3cr1 hippocampal expression, Log2, LPS + Luma vs LPS [1, 3]: 0.231
Maff hippocampal expression, Log2, LPS + Luma vs LPS [1, 3]: 1.21
P2ry12 hippocampal expression, Log2, LPS + Luma vs LPS [1, 3]: 0.14
Ptgs2 hippocampal expression, Log2, LPS + Luma vs LPS [1, 3]: −0.358
Tmem100 hippocampal expression, Log2, LPS + Luma vs LPS [1, 3]: 0.186
Tmem144 hippocampal expression, Log2, LPS + Luma vs LPS [1, 3]: 0.227
Cldn5 hippocampal expression, Log2, LPS + Luma vs LPS [1, 4]: 0.812
Egr1 hippocampal expression, Log2, LPS + Luma vs LPS [1, 4]: 0.87
Fos hippocampal expression, Log2, LPS + Luma vs LPS [1, 4]: 2.27
Ngf hippocampal expression, Log2, LPS + Luma vs LPS [1, 4]: 0.126
Vegfa hippocampal expression, Log2, LPS + Luma vs LPS [1, 4]: 0.227
FUST Time sniffing reward (Sprague-Dawley rats; Luma 1 mg/kg IP 24 h before and 24 h after LPS, control 16.99, LPS + Vehicle 11.11): 17.38 s
FUST Latency sniffing reward (Sprague-Dawley rats; Luma 1 mg/kg IP 24 h before and 24 h after LPS, control 28.00, LPS + Vehicle 164.2): 68.13 s
FUST Latency sniffing water (Sprague-Dawley rats; control test, Luma 1 mg/kg IP before and after LPS, control 190.56, LPS + Vehicle 274.27): 207.60 s
